From patent publication US10183950B2, “Thienopyrimidine inhibitors of atypical protein kinase C” (Cancer Research Technology Limited, priority 2011, dated 2019)

Target: T1, full-length human PKCι (Homo sapiens, UniProt P41743)
T1 construct: Recombinant, full-length human PKCι expressed in Sf21 insect cells is also commercially available; purchased; host or cells: Sf21 insect cells
T1 sequence (P41743 1-596): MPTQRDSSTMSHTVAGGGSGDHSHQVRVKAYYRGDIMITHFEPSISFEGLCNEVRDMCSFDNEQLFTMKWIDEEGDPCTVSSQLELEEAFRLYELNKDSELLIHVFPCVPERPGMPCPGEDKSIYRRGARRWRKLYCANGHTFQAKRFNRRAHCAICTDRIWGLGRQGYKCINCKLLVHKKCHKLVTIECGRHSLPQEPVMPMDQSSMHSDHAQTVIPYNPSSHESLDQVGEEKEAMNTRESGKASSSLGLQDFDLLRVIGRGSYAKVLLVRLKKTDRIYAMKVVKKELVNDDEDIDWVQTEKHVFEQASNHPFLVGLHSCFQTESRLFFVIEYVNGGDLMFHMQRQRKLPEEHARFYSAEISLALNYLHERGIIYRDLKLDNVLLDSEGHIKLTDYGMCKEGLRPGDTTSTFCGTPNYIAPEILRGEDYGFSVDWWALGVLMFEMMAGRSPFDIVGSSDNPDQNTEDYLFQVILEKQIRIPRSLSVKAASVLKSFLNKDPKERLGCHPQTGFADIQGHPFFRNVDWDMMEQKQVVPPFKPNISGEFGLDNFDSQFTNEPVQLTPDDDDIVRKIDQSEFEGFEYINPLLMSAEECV
Experiment: PKCι IC50 IMAP fluorescence polarisation assay, full-length enzyme
Assay type: biochemical
Conditions: full length PKCi at 15 μM ATP; read-out: IC50 in IMAP assay against full length PKCi

IC50	SMILES
10 to 40 µM	CC(C)(C)c1cc2nc(-c3ccncc3)nc(NC[C@@H](N)Cc3ccccc3)c2s1 [compound 324, (S)-N*1*-(6-tert-Butyl-2-pyridin-4-yl-thieno[3,2-d]pyrimidin-4-yl)-3-phenyl-propane-1,2-diamine]
0.1 to 1 µM	Cc1sc2c(NC[C@@H](N)Cc3ccccc3)nc(-c3ccncc3)nc2c1C [compound 325, (S)-N*1*-(6,7-Dimethyl-2-pyridin-4-yl-thieno[3,2-d]pyrimidin-4-yl)-3-phenyl-propane-1,2-diamine]
1 to 10 µM	N[C@H](CNc1nc(-c2ccncc2)nc2c(-c3ccc(Br)cc3)csc12)Cc1ccccc1 [compound 326, (S)-N*1*-[7-(4-Bromo-phenyl)-2-pyridin-4-yl-thieno[3,2-d]pyrimidin-4-yl]-3-phenyl-propane-1,2-diamine]
1 to 10 µM	N[C@@H](CNc1nc(-c2ccncc2)nc2c(-c3ccc(Br)cc3)csc12)Cc1ccccc1 [compound 327, (R)-N*1*-[7-(4-Bromo-phenyl)-2-pyridin-4-yl-thieno[3,2-d]pyrimidin-4-yl]-3-phenyl-propane-1,2-diamine]
1 to 10 µM	Cc1sc2c(NC[C@H](N)Cc3ccccc3)nc(-c3ccncc3)nc2c1Br [compound 329, (R)-N*1*-(7-Bromo-6-methyl-2-pyridin-4-yl-thieno[3,2-d]pyrimidin-4-yl)-3-phenyl-propane-1,2-diamine]
1 to 10 µM	Cc1sc2c(NC[C@H](C)N)nc(-c3ccncc3)nc2c1Br [compound 331, (S)-N*1*-(7-Bromo-6-methyl-2-pyridin-4-yl-thieno[3,2-d]pyrimidin-4-yl)-propane-1,2-diamine]
10 to 40 µM	CC(C)(C)c1sc2c(NC[C@H](N)Cc3ccccc3)nc(-c3ccncc3)nc2c1Br [compound 335, (R)-N*1*-(7-Bromo-6-tert-butyl-2-pyridin-4-yl-thieno[3,2-d]pyrimidin-4-yl)-3-phenyl-propane-1,2-diamine]
10 to 40 µM	CN(C)CCNc1nc(-c2ccncc2)nc2c(Br)csc12 [compound 339, N′-(7-Bromo-2-pyridin-4-yl-thieno[3,2-d]pyrimidin-4-yl)-N,N-dimethyl-ethane-1,2-diamine]

Second part, the compound before the results:

SMILES	IC50
Cc1sc2c(N[C@@H]3CCNC3)nc(-c3ccncc3)nc2c1Br [compound 328, (7-Bromo-6-methyl-2-pyridin-4-yl-thieno[3,2-d]pyrimidin-4-yl)-(R)-pyrrolidin-3-yl-amine]	0.1 to 1 µM
Cc1sc2c(N[C@H]3CCNC3)nc(-c3ccncc3)nc2c1Br [compound 332, (7-Bromo-6-methyl-2-pyridin-4-yl-thieno[3,2-d]pyrimidin-4-yl)-(S)-pyrrolidin-3-yl-amine]	1 to 10 µM
CC(C)(C)c1sc2c(NCCN)nc(-c3ccncc3)nc2c1Br [compound 333, N*1*-(7-Bromo-6-tert-butyl-2-pyridin-4-yl-thieno[3,2-d]pyrimidin-4-yl)-ethane-1,2-diamine]	10 to 40 µM
CC(C)(C)c1sc2c(NC[C@@H](N)Cc3ccccc3)nc(-c3ccncc3)nc2c1Br [compound 334, (S)-N*1*-(7-Bromo-6-tert-butyl-2-pyridin-4-yl-thieno[3,2-d]pyrimidin-4-yl)-3-phenyl-propane-1,2-diamine]	1 to 10 µM
N[C@H](CNc1nc(-c2ccncc2)nc2c(Br)csc12)Cc1ccccc1 [compound 336, (S)—N*1*-(7-Bromo-2-pyridin-4-yl-thieno[3,2-d]pyrimidin-4-yl)-3-phenyl-propane-1,2-diamine]	< 0.1 µM
Cc1c(Br)sc2c(NC[C@@H](N)Cc3ccccc3)nc(-c3ccncc3)nc12 [compound 337, (S)-N*1*-(6-Bromo-7-methyl-2-pyridin-4-yl-thieno[3,2-d]pyrimidin-4-yl)-3-phenyl-propane-1,2-diamine]	0.1 to 1 µM
NC(=O)CNc1nc(-c2ccncc2)nc2c(Br)csc12 [compound 338, 2-(7-Bromo-2-pyridin-4-yl-thieno[3,2-d]pyrimidin-4-ylamino)-acetamide]	10 to 40 µM
